Source: US7125849B2, “Peptide-based angiogenesis inhibitors and methods of use thereof” (The Scripps Research Institute, priority 2003, dated 2006)
No end group written: not given here.

Legend:
HMEC-1 cells = test: Endothelial cell migration by time lapse imaging
Procedure: Microscopy. To assay migration, HMEC-1 cells were treated with various concentrations of either PRO polypeptide or mutant peptide prior to plating. Cells were plated on coverslips coated with about 2 μg/ml of fibronectin (FN). Dishes containing coverslips were prepared as described by Kiosses et al., and maintained at a temperature of about 37° C., under an atmosphere containing about 5% carbon dioxide as described by Schwartz, J. Cell Biol., 1993, 120:1003–1010. The cells were viewed with a Nikon DiaPhot Microscope equipped with a SenSys cooled CCD video camera linked to a Silicon Graphics workstation running the Inovision ISEE software program. At the end of the experiment, images of each cell were outlined and the centroid (cell center) calculated. Displacement of the centroid was then used to determine movement of the cell over time. Statistical analysis was performed using Microsoft EXCEL statistics software. Approximately 50 cells were filmed and tracked per experiment, with at least 3 independent experiments for both the PRO and the mutant peptide. Results were expressed as means±standard error of the mean. The Students t-test was used to determine whether the observed differences were statistically significant (p=0.05).

[1] = system: chorioallantoic membrane (CAM) of chick embryos; test: Chick CAM in vivo angiogenesis assay (bFGF-induced); conditions: bFGF filters, examined 3 days later, compared to untreated filters, FIG. 6
Procedure: Chick Cam Assays. In vivo angiogenesis assays were performed essentially as previously described by Brooks, et al., Cell, 1994, 79:1157–1164, the relevant disclosures of which are incorporated herein by reference. Filter discs saturated with 1.0 ug/ml bFGF were placed on the chorioallantoic membranes (CAMs) of 10-day-old chicken embryos, immediately followed by daily topical addition of either a PRO inhibitory peptide (20 μgs) or a control peptide ([…]) in 20 μl of fibroblast growth medium (FGM). After 72 hours, the filter discs and associated CAM tissue were harvested and quantified. Angiogenesis was assessed as the number of visible blood vessel branch points within the defined area of the filter discs. At least 20 CAMs were used for each treatment.
New blood vessels invade the filter dishes within 2–5 days, and angiogenesis can be readily detected. Filters without any additions, with control or with the PRO compound of Example 1 were implanted and examined 3 days later.

Nck = target: T1, Nck (Homo sapiens, UniProt P16333); test: Affinity chromatography of endothelial cell extracts on peptide-agarose, western blot with anti-Nck; assay type: binding; conditions: detergent extracts of human endothelial cells
T1 construct: endogenous in cells; host or cells: human endothelial cells (cell type for this assay not further specified)
Procedure: Affinity Chromatography. PRO or control peptides containing an N-terminal cysteine were dissolved in about 1 ml of coupling buffer (50 mM tris pH 8.0, 5 mM EDTA) and about 0.5 ml at about 3 mg/ml peptide added to about 2 ml of activated thiol-Sepharose (Pharmacia). Samples were incubated at a temperature of about 4° C. overnight with 1% β-mercaptoethanol added to block unreacted sites. Beads were rinsed and stored at a temperature of about 4° C. Endothelial cell cultures in 15 cm dishes were extracted in about 1.0 ml of cold (about 4° C.), lysis buffer (20 mM pH 7.4 sodium phosphate, 100 mM NaCl, 1% Triton X-100, 10 mM NaF, 2 mM EDTA, 1 mM sodium orthovanadate, 1 mM PMSF, 10 μg/ml each of leupeptin and aprotinin). The extracts were centrifuged for about 10 minutes at top speed in a microfuge and the supernatants were then removed. A 0.5 ml sample of each extract was incubated with about 10 μl of packed beads for about 1 hour, with rotation at a temperature of about 4° C. The beads were rinsed with lysis buffer (about 4×0.5 ml) and dissolved in SDS sample buffer (about 0.04 ml). Samples were analyzed by SDS PAGE on 10% gels and immunoblotting with anti-NCK (Santa Cruz) and HRP-protein A as secondary, and then were developed and detected using enhanced chemiluminescence (ECL kit, Amersham). […]

endothelial cells = test: Contractility on flexible silicone rubber substrates (wrinkle assay); assay type: cell-based; conditions: about 10 μM, FIG. 4
Description: Contractility. To visualize cell contractility, flexible rubber substrates were generated as described by Bussolino et al., J. Biol. Chem., 1989, 264:18284–18287. Briefly, silicone rubber (polydimethylsiloxane), having a viscosity of about 10000 centistokes (Dow Corning Co.) was applied to the coverslip at the bottom of 35 mm tissue culture dishes and coated with a thin layer of gold-palladium using a Hummer VI sputter coater, which polymerized a thin layer of silicon rubber. The surface was additionally coated with about 2 μg/ml of fibronectin (FN). Treated and un-treated endothelial cells were plated on the rubber substrate and allowed to adhere. Cells that had wrinkled the substrate beneath were visualized for about 4 hours and then scored by time-lapse phase contrast microscopy. Following this period, the cells were treated with Cytochalasin D (about 1 μg/ml) (Molecular Probes) to release all wrinkles that were due to actin-dependent cell tension.
To examine effects on contractility, cells were plated on elastic substrata, as described above, that can be pulled into wrinkles by cell-generated forces.

[2] = system: Human umbilical vein endothelial cells (HUVECs); test: In vitro tube formation assay in 3-dimensional matrix; assay type: cell-based; conditions: about 48 hours
Description: Formation of Three-dimensional Collagen Gels. Collagen gels were formed by mixing ice-cold gelation solution (10× M199, H2O, 0.53 mol/L NaHCO3, 200 mmol/L L-glutamine, type I collagen, 0.1 mol/L NaOH; 100:27.7:50:10:750:62.5 by volume) with cells in 1×-basal medium at a concentration of about 3×10^6 cells/ml at a ratio of about 4 volumes of gelation solution to about 1 volume of cells by the method of Yang et al. Am. J. Pathol., 1999, 155:[…] (hereinafter “Yang et al.”). The gels were allowed to form by incubation in a CO2-free incubator at a temperature of about 37° C. for about 30–60 minutes. […]
Quantification of Tube Formation. […] The total length of each tube or the long axis of single cells or groups of adjacent cells was measured, and the raw data was imported into a Microsoft Excel spread sheet. The mean tube length was determined for each well, followed by determination of the mean data and SEM for each experimental group.
As an initial test of the PRO effect on endothelial cell behavior in 3-dimensional matrices, in vitro tube formation assays in matrigel were carried out. […] Tube formation was quantitated by determining the length of endothelial cell tubes.

Binding of Nck from endothelial cell lysates (Nck) | Substance | Endothelial cell migration rate (HMEC-1 cells; about 10 μM peptide, time lapse imaging, FIG. 3A) | Angiogenesis in CAM (vascular branch points) [1] | Cell contractility (wrinkles of elastic substratum) (endothelial cells) | Cell number [2] | Morphology of individual cells [2] | Migration rates over the time course (argues against toxicity) (HMEC-1 cells; FIG. 3B)
no detectable Nck was bound | SEQ ID NO: 5: control peptide in which the first two prolines of SEQ ID NO: 4 were replaced by the amino acids A and G (YGRKKRRQRRRGKAGAPPMRNTSTM; fusion protein fragment) | no significant effect on migration | essentially no effect | had no effect |  |  | 
 | YGRKKRRQRRRGKPPAPPMRNTSTM [SEQ ID NO: 4] |  |  |  | nor was cell number greatly altered | not noticeably perturbed | essentially constant
